Reference: US20130012429A1, “ANTI-VIRAL THERAPY” (priority 2011, published 2013)
“Also recorded” adds a separate entry of the source. No end group written: not given here.

How the values were obtained:
HCV (Jc1 HCV strain) = assay: Antiviral experiments: HCV-RNA in supernatants and cells of HCV-infected HuH7.5 cells (qRT-PCR); format: cell-based, hepatitis C virus
Excerpt: The Jc1 HCV strain was produced as described previously (Reference 20). Briefly, HuH7.5 cells were transfected with Jc1 RNA by electroporation and supernatants harvested 14-20 days post transfection. HuH7.5 cells were infected at a multiplicity of infection (MOI) of 0.02 unless otherwise stated. Infection was allowed to proceed for 9-11 days at which point infection was greater than 90% as determined by immunofluorescence (also described in Reference 20).
5 day time course: cells infected as described above at a MOI of 0.02 for 2 h were plated and then immediately treated with BMP6 at the doses stated in the figures for the duration of the infection. 10 day time course: cells infected for 2 h were plated and incubated for 3 days. Cells were sub-cultured and BMP6 added at the stated doses. Additional doses of the same concentration were applied at further sub-culturing to maintain the dose. For both time courses, IFNa (PBL Biomedical Laboratories) was added at 1000 U overnight either at day 4 (5 day time course) or day 9 (10 day time course). Supernatant RNA extraction was performed using QIAamp viral RNA extraction kit and total cellular RNA was extracted using RNeasy kit (both Qiagen). cDNA was then transcribed using the Superscript III Reverse transcriptase (Invitrogen) (random hexamers), all according to the manufacturers' protocols. HCV-RNA levels were measured using qRT-PCR in a LightCycler 480 Real-Time PCR System (Roche). cDNA at 10-100 ng/uL was amplified using RC1 (5′ […] 3′ (SEQ ID NO:3)) and RC21(5′ […] 3′ (SEQ ID NO:4)) primers. Each reaction was run in duplicate. HCV-RNA levels were quantified using a standard curve derived from HCV Jc1 cDNA.

[1] = tested on: SMAD1/5/8 phosphorylation; assay: Western blot of p-SMAD1/5/8 in Hep3B cells pre-treated with TNF-alpha and exposed to BMP6; format: cell-based, human
Description: Hep3B cells were exposed to TNF-alpha at 20 ng/mL for 48 hours before the addition of BMP6 at an end concentration of 2 nM. Lysates were harvested at either 1 h or 18 h post addition of BMP6. Briefly, cells were trypsinised and lysed for 20 min on ice in NP40 1% buffer supplemented with protease inhibitors (Sigma) at 1:500 and phosphatase inhibitor cocktail 2 (Sigma) at 1:100. The lysates were spun at 4° C., 13,000 rpm for 5 minutes and the supernatants stored at −80° C. until the blot was performed. Briefly, the protein content of the lysates was normalised using the BCA assay (Pierce) and run on 12% SDS-PAGE mini gels. Gels were blotted onto nitrocellulose membranes (GE Healthcare) and then blocked for 1 hour at room temperature in PBS containing 5% (w/v) milk. Membranes were then probed overnight at 4° C. in TBS-TWEEN containing 5% (w/v) BSA with the following primary antibodies: mouse anti-beta-actin (loading control) (Sigma), mouse anti-rabbit IgG (negative control) (Dako), rabbit anti-pSMAD1/5/8 (Cell Signalling), or rabbit anti-H.Pylori (negative control) (Dako). […] Membranes were developed using ECL reagent (GE Healthcare), films were scanned using an AlphaScan (Alpha Innotech) running Epson Scan software (Seiko Epson), and band intensities were determined using ImageQuant5.2 (Molecular Dynamics).

[2] = tested on: BMP/SMAD signalling pathway; assay: HJV, SMAD6 and SMAD7 mRNA in uninfected hepatoma (Hep3B) cells incubated with TNF-alpha (qRT-PCR); format: cell-based, human
Description: (§1) RNA extraction and cDNA synthesis were carried out by using either RNeasy kits with QIAshredder homogenization (both Qiagen) and the High capacity RNA-to-cDNA kit (Applied Biosystems), or by using the Cells-to-Ct kit (Applied Biosystems), all according to the manufacturers' protocols. qRT-PCR reactions were performed on an Applied Biosystems Fast 7500 Real-Time PCR System (Applied Biosystems). Gene expression was assessed using inventoried Taqman Gene Expression Assays (Applied Biosystems) (see table 4 for assay codes) with Taqman Gene Expression Master Mix (Applied Biosystems) following the manufacturer's instructions. cDNA was diluted in Nuclease-Free Water (Ambion) to achieve a final concentration of 1-3 ng/uL. Samples were run in duplicate and gene expression levels were quantified relative to glyceraldehyde-3-phosphate dehydrogenase (GAPDH) mRNA expression using the delta Ct method; in some cases relative expression was then quantified further by normalizing to the untreated controls (delta-delta Ct method).
(§2) The hepatoma cell line Hep3B were maintained in MMEM supplemented with 10% foetal calf serum (PAA), 2 mM glutamine, 100 U/mL penicillin, 0.1 mg/mL streptomycin (all Sigma). HuH7 and HuH7.5 cells were cultured in DMEM supplemented as above. HuH7.5 cells infected at a MOI of 0.02 or hepatoma cells pre-treated for 48 h with TNF-alpha at 20 ng/mL were incubated overnight with titrations of human recombinant BMP6 or BMP9, and in the case of TNF-alpha treated cells IL-6 (all R&D Systems). Titrations of TNF-alpha were applied for 48 h prior to RNA extraction. A neutralizing anti-TNF-alpha antibody (clone 1825), (R&D Systems) supplemented the culture medium of HCV infected HuH7.5 cells at 0.2 μg/mL and was added at each sub culture from 2 days post infection to the end of the infection course. Uninfected cells were cultured and treated in parallel with the HCV infected cells.

HAMP mRNA = HAMP mRNA induction by BMP6, BMP9 or IL-6 in hepatoma cells pre-treated with TNF-alpha (qRT-PCR); format: cell-based, human; details: TNF-alpha treatment
Description: as §1, §2

[3] = tested on: Influenza A Virus Strain PR8; format: cell-based; details: infected HuH7 cells mixed 1:10 with uninfected, cultured 24 hours; compared with interferon alpha and beta; FIG. 2
[4] = 1 uM hepcidin peptide added 3 days after HCV inoculation, a further 7 days, FIG. 11

“hepcidin: hepcidin peptide, the iron regulatory hormone encoded by HAMP, added exogenously at 1 uM (DTHFPICIFCCGCCHRSKCGMCCKT; ends and bridges not checked; cysteine pairing not given here; UniProt P81172 60-84, looked up)” was tested, and the “HCV RNA in cells” value (HCV (Jc1 HCV strain); [4]) was “not significantly altered”, the “HCV RNA in supernatant” value (HCV (Jc1 HCV strain); [4]) was “not significantly altered” and the “effect on HCV replication” value (HCV (Jc1 HCV strain); FIG. 11) was “No specific effect”.

For TNF-alpha, the “inhibition of SMAD1/5/8 phosphorylation stimulated by BMP6” value ([1]; 18 hr exposure to BMP6, TNF-alpha pre-treatment) was ~35%, the “p-SMAD1/5/8 after incubation with BMP6” value ([1]; Hep3B cells, BMP6 for both 1 hr and 18 hr, FIG. 9a) was “reduced” and the “HJV mRNA levels” value ([2]; FIG. 5e) was “reduced”. The “SMAD6 mRNA” value ([2]; FIG. 5f) was “increased”, the “SMAD7 mRNA” value ([2]; FIG. 5f) was “increased” and the “mean suppression of HAMP mRNA upregulation in response to BMP6” value (HAMP mRNA; FIG. 9b) was 16.8 fold. For the same molecule, the “mean suppression of HAMP mRNA upregulation in response to BMP9” value (HAMP mRNA; FIG. 9c) was 4.3 fold and the “hepcidin response to IL-6” value (HAMP mRNA; FIG. 10) was “blunted”.

B1: BMP6: human recombinant BMP6 (R&D Systems), a bone morphogenetic protein that stimulates the BMP/SMAD signalling pathway (protein, UniProt P22004 375-513, looked up)
Bone morphogenetic protein 6: SASSRRRQQSRNRSTQSQDVARVSSASDYNSSELKTACRKHELYVSFQDLGWQDWIIAPKGYAANYCDGECSFPLNAHMNATNHAIVQTLVHLMNPEYVPKPCCAPTKLNAISVLYFDDNSNVILKKYRNMVVRACGCH
B1 was tested, and the “spread of the Influenza virus (level of haemagglutinin)” value [3] was “restricts spread of the Influenza virus”, the “viral RNA in supernatants, established infection” value (from here on “viral RNA in supernatants”) (HCV (Jc1 HCV strain); 2 nM BMP6 added after 3 days of HCV replication, measured after a further 7 days) was “reduced modestly” and the “viral RNA in supernatants” value (HCV (Jc1 HCV strain); 6 nM BMP6 added after 3 days of HCV replication, measured after a further 7 days) was “reduced modestly”. For the same molecule, the “culture supernatant HCV RNA after 5 days” value (HCV (Jc1 HCV strain); 5 days post-infection, BMP6 at all doses for the duration of the infection, IFNa overnight, FIG. 12b) was “significantly reduced; also recorded: significantly lower”, the “viral RNA in supernatants” value (HCV (Jc1 HCV strain); 10 days post-infection, 18 nM BMP6 for 7 days or IFNa overnight, FIG. 12c) was “lower” and the “cellular HCV RNA, established infection” value (HCV (Jc1 HCV strain); 10 days post-infection, 18 nM BMP6 for 7 days or IFNa overnight, FIG. 12d) was “significantly reduced; also recorded: lower”. The “accumulation of HCV RNA in culture supernatants over time” value (HCV (Jc1 HCV strain); BMP6 added immediately after infecting HuH7.5 cells, 5 day time course, FIG. 12a) was “severely restricted; also recorded: reduced” and the “suppression of HCV growth” value (HCV (Jc1 HCV strain); in vitro live virus model, over 5 days) was “over 90%”.
